The results in this text go back to patent publication US20010036460A1, “Targeted death cancer cells” (priority 2000, published 2001).

In one assay the test system is PC-3 xenografts. Description: In vivo test of gene therapy system: PC-3 xenograft tumor volume after 4-OHT. Also noted: species or system male BALB/c nu/nu athymic mice. The method, then:
To further test the efficacy of the regulated recombination system for targeting DT-A to bcl-2 expressing cells, xenografts are generated in male BALB/c nu/nu athymic mice by the subcutaneous injection of PC-3 cells (38,40,42). To generate tumors, […] are mixed with Matrigel basement membrane matrix and injected subcutaneously into the flank of a mouse (38). When tumors reach a volume of about 50 mm^3, a mixture of bcl2/FLP-ERt and RSV/FRT2puroDT-A containing virus is injected directly into the tumor site. A 1:1 ratio of the two viruses is maintained, while the total number of plaque forming units varies (10^9, 5×10^9, and 10^10). Twenty-four hours after injection of the virus, 4-OHT is administered to the host mice either by a single injection directly into the tumor (100 μl of a 3 μM solution in PBS) or by intraperitoneal injection on five consecutive days (1 mg in 100 μl sunflower seed oil). At one, two, and three weeks following the administration of 4-OHT, mice are euthanized, tumors are excised, and their volume and wet weight determined. Tumor volume is calculated by multiplying caliper measurements of length, width, and depth and then multiplying by 0.5236 (23). […] Tumors are fixed and processed for histopathological examination. Other control groups in this study are xenografts infected only with the RSV/FRT2puroDT-A virus and xenografts injected only with PBS.

For assay [1], the system named is PC-3 cells co-infected with the bcl2/FLP-ERt and RSV/FRT2puroDT-A containing adenoviruses. Nature of the assay: In vitro test of gene therapy system: viable and clonogenic cell number after 4-OHT. In kind it is cell-based, human. The settings on record: co-infected PC-3 cells, 4-OHT-treated versus non-treated cultures; 1, 2, 3 μM, 48 hours. As to the method: PC-3 cells are co-infected with the bcl2/FLP-ERt and RSV/FRT2puroDT-A containing adenoviruses. Cell death resulting from administration of the synthetic ligand 4-hydroxytamoxifen (4-OHT) is tested in cultured cells. Adenoviral infection is carried out by the addition of viral solutions of varying ratios of the two viruses and at varying degrees of multiplicity of infection to cell monolayers. After three hours of exposure to virus, the medium is changed and cells are incubated in fresh medium containing 4-OHT. Three concentrations of 4-OHT are tested: 1, 2, and 3 μM. After 48 hours incubation with 4-OHT, the number of viable cells are determined using the Trypan blue exclusion assay and the MTT assay (8). Since DT-A kills irreversibly by both apoptosis, as well as nonapoptotic pathways (39), the number of apoptotic cells is also determined. In addition, the growth potential of cells following treatment with tamoxifen is determined using a clonogenic assay (8).
In infected cells, the binding of 4-OHT to the FLP-ERt fusion protein will activate FLP. This in turn will result in recombinational excision of the FRT-puropA-FRT sequence, expression of the DT-A subunit, and cell death. […] Control infections are done with the RSV/FRT2puroDT-A virus alone and with the RSV/puro virus. […]

The test system of assay [2] is LNCaP cells stably transfected with the plasmid p22EDT1. Nature of the assay: Trypan blue exclusion cell viability assay after 48 hours culture with 4-OHT (FIG. 3). In kind it is cell-based, human. The settings on record: 4-OHT of varying concentrations. As to the method: FIG. 3. […] Parental LNCAP cells (blue) and LNCaP cells stably transfected with the plasmid p22EDT1 (red) were cultured in the presence of 4-OHT of varying concentrations for 48 hours after which the trypan blue exclusion assay was used to assess cell viability. p22EDT1 contains an SV40 promoter driving an FLP-ERt gene sequence and a CMV promoter driving a DT-A sequence disrupted by an FRT-puro/pA-FRT cassette.

Consider 4-hydroxytamoxifen [4-OHT], for which, in the assay with PC-3 xenografts (control xenografts infected only with the RSV/FRT2puroDT-A virus or injected only with PBS), the tumor size result is “no effect on tumor size”. Further, the tumor volume result in the assay on PC-3 xenografts (xenografts injected with 1:1 mixture of bcl2/FLP-ERt and RSV/FRT2puroDT-A virus, 4-OHT intratumoral or intraperitoneal, versus vehicle-treated control mice) is on record as “significantly less”. Moreover, the “number of viable and clonogenic cells” value in assay [1] was “significantly reduced”. Moreover, the “cell viability (DTA expression and cell death)” value in assay [2] was “results in DTA expression and cell death”.
